Laboratory results reported in patent US9328112B2, “Tetracyclic CDK9 kinase inhibitors” (AbbVie Inc., priority 2014, dated 2016).
Structures can show the parent of a compound that is named as a salt.

Columns and labels:
[1] = biological target: CDK9/Cyclin T1 (Homo sapiens (Human), UniProt P50750); assay: CDK9 enzyme assay (LANCE ULight TR-FRET kinase assay); type: biochemical; details: 1000 μM ATP, 100 nM ULight MBP, kinase reaction 1 hour
Protocol: CDK9 enzyme activities were measured using LANCE ULight TR-FRET kinase assay reagents (PerkinElmer, Waltham, Mass.). Compounds were diluted in 100% DMSO then diluted with 1:10 in serine/threonine kinase assay buffer containing 20 mM HEPES, 10 mM MgCl2, […], and 0.0075% Triton X-100. Equal volume of the compound dilutions was added to a final reaction mixture containing LANCE detection buffer (PerkinElmer CR97-100), 100 nM ULight MBP (PerkinElmer TRF0109M), 1000 μM ATP, and CDK9/Cyclin T1 (Carna Biosciences 04-110). The kinase reaction was carried out for 1 hour before addition of stopping buffer to a final of 20 mM EDTA and 0.5 nM of LANCE Ultra Europium anti-phospho-MBP antibody (PerkinElmer TRF0201M) in LANCE detection buffer. The reaction was incubated for 1 hour and the signal was read in Envision in TR-FRET mode (excitation at 320 nm and emission at 615/665 nm).

[2] = tested on: H929 cells; assay: Cell viability assay (Cell TiterGlo); type: cell-based; details: Homo sapiens, NCI-H929, 24 hours at 37° C., Cell TiterGlo luminescence
Protocol: The cell viability assay was performed using H929 cells. Cells were seeded in 96-well plates at 10,000 cells/well and, after overnight incubation, treated with compounds in a dose response of 3-fold dilutions from 10 μM to 0.005 μM ([…], 0.1% final DMSO concentration). After 24 hours at 37° C., cell viability was measured using Cell TiterGlo reagent (Promega) with a luminescence reader.

CDK9/Cyclin T1, sequence (P50750 whole entry): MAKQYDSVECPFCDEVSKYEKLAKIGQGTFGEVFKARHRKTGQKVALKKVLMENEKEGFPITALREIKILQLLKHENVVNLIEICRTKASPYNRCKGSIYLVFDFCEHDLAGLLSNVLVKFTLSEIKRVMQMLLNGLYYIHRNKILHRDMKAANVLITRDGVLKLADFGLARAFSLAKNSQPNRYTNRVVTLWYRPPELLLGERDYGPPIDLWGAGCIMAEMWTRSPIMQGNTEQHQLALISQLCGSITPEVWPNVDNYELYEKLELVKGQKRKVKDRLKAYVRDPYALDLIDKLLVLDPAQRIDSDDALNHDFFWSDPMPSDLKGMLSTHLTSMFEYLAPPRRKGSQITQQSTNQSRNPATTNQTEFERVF
CDK9/Cyclin T1, sequence (O60563 whole entry partner): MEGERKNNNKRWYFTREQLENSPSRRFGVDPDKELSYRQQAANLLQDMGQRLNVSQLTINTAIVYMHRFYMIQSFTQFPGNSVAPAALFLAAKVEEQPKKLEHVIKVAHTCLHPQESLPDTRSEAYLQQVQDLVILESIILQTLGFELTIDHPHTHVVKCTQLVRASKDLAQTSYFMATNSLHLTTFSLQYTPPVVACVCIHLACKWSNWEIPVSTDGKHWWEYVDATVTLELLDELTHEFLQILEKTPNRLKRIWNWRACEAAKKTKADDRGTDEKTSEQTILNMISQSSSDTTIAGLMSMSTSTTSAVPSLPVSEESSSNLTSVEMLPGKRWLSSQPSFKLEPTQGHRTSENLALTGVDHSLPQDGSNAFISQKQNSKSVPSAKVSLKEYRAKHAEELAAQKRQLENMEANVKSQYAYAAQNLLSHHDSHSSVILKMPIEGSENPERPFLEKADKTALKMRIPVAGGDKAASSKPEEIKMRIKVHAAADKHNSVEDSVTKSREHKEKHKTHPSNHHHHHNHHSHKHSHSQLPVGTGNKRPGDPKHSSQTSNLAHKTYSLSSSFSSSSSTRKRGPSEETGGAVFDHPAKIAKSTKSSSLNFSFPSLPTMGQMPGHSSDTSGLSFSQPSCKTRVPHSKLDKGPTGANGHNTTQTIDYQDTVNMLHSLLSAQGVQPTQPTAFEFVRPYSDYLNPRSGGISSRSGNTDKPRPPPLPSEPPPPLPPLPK

Row | Structure (SMILES) | IC50 [1] | IC50 [2]
1 | CN1Cc2c(C3=CCNCC3)[nH]c3nccc(c23)-c2cc(F)ccc21 [Example 1, 10-fluoro-7-methyl-5-(1,2,3,6-tetrahydropyridin-4-yl)-6,7-dihydro-4H-3,4,7-triazadibenzo[cd,f]azulene] | 21 nM | 40 nM
2 | CCOC(=O)NS(=O)(=O)N1CC=C(c2[nH]c3nccc4c3c2CN(C)c2ccc(F)cc2-4)CC1 [Example 3, ethyl{[4-(10-fluoro-7-methyl-6,7-dihydro-4H-3,4,7-triazadibenzo[cd,f]azulen-5-yl)-3,6-dihydropyridin-1(2H)-yl]sulfonyl}carbamate] | 47 nM | 590 nM
3 | CCC1c2c(C3=CCNCC3)[nH]c3nccc(c23)-c2cc(F)ccc2N1C (stereo not shown) [Example 9, 6-ethyl-10-fluoro-7-methyl-5-(1,2,3,6-tetrahydropyridin-4-yl)-6,7-dihydro-4H-3,4,7-triazadibenzo[cd,f]azulene dihydrochloride] | 48 nM | 10 nM
4 | CN1c2ccc(F)cc2-c2ccnc3[nH]c(C4=CCNCC4)c(c23)C1c1cnn(C)c1 (stereo not shown) [Example 10, 10-fluoro-7-methyl-6-(1-methyl-1H-pyrazol-4-yl)-5-(1,2,3,6-tetrahydropyridin-4-yl)-6,7-dihydro-4H-3,4,7-triazadibenzo[cd,f]azulene] | 230 nM | 360 nM
5 | CN(C)C(=O)CN1CC=C(c2[nH]c3nccc4c3c2CN(C)c2ccc(F)cc2-4)CC1 [Example 12, 2-[4-(10-fluoro-7-methyl-6,7-dihydro-4H-3,4,7-triazadibenzo[cd,f]azulen-5-yl)-3,6-dihydropyridin-1(2H)-yl]-N,N-dimethylacetamide] | 51 nM | 42 nM
6 | Fc1ccc2c(c1)-c1ccnc3[nH]c(C4=CCNCC4)c(c13)CO2 [Example 14, 10-fluoro-5-(1,2,3,6-tetrahydropyridin-4-yl)-4,6-dihydro-7-oxa-3,4-diazadibenzo[cd,f]azulene] | 20 nM | 180 nM
7 | CS(=O)(=O)N1CC=C(c2[nH]c3nccc4c3c2COc2ccc(F)cc2-4)CC1 [Example 15, 10-fluoro-5-[1-(methylsulfonyl)-1,2,3,6-tetrahydropyridin-4-yl]-4,6-dihydro-7-oxa-3,4-diazadibenzo[cd,f]azulene] | 94 nM | 590 nM
8 | CN1Cc2c(C3=CCN(CC(=O)O)CC3)[nH]c3nccc(c23)-c2cc(F)ccc21 [Example 16, [4-(10-fluoro-7-methyl-6,7-dihydro-4H-3,4,7-triazadibenzo[cd,f]azulen-5-yl)-3,6-dihydropyridin-1(2H)-yl]acetic acid dihydrochloride] | 61 nM | 220 nM
9 | CN(CCO)C(=O)CN1CC=C(c2[nH]c3ncc(F)c4c3c2CN(C)c2ccc(F)cc2-4)CC1 [Example 71, 2-[4-(1,10-difluoro-7-methyl-6,7-dihydro-4H-3,4,7-triazadibenzo[cd,f]azulen-5-yl)-3,6-dihydropyridin-1(2H)-yl]-N-(2-hydroxyethyl)-N-methylacetamide] | – | 21 nM
10 | CN1Cc2c(C3=CCN([C@H]4CC[C@H](CC(=O)O)CC4)CC3)[nH]c3nccc(c23)-c2ccccc21 [Example 169, {trans-4-[4-(7-methyl-6,7-dihydro-4H-3,4,7-triazadibenzo[cd,f]azulen-5-yl)-3,6-dihydropyridin-1(2H)-yl]cyclohexyl}acetic acid] | 90 nM | –
11 | CN1Cc2c(C3=CCN([C@H]4CC[C@@H](CC(=O)O)CC4)CC3)[nH]c3nccc(c23)-c2ccccc21 [Example 170, {cis-4-[4-(7-methyl-6,7-dihydro-4H-3,4,7-triazadibenzo[cd,f]azulen-5-yl)-3,6-dihydropyridin-1(2H)-yl]cyclohexyl}acetic acid] | 110 nM | –
12 | CN1Cc2c(C3=CCN([C@H]4CC[C@H](C(=O)O)CC4)CC3)[nH]c3nccc(c23)-c2ccccc21 [Example 171, trans-4-[4-(7-methyl-6,7-dihydro-4H-3,4,7-triazadibenzo[cd,f]azulen-5-yl)-3,6-dihydropyridin-1(2H)-yl]cyclohexanecarboxylic acid] | 150 nM | –
13 | CN1Cc2c(C3=CCN(C4CCC(C(=O)O)CC4)CC3)[nH]c3nccc(c23)-c2ccccc21 (stereo not shown) [Example 172, 4-[4-(7-methyl-6,7-dihydro-4H-3,4,7-triazadibenzo[cd,f]azulen-5-yl)-3,6-dihydropyridin-1(2H)-yl]cyclohexanecarboxylic acid] | 120 nM | –

Now from value to compound:

Row | IC50 [1] | IC50 [2] | Structure (SMILES)
14 | – | 940 nM | CN1Cc2c(C3=CCN(C(=O)OC(C)(C)C)CC3)[nH]c3nccc(c23)-c2cc(F)ccc21 [Example 2, tert-butyl 4-(10-fluoro-7-methyl-6,7-dihydro-4H-3,4,7-triazadibenzo[cd,f]azulen-5-yl)-3,6-dihydropyridine-1(2H)-carboxylate]
15 | 25 nM | 150 nM | CN1Cc2c(C3=CCN(S(C)(=O)=O)CC3)[nH]c3nccc(c23)-c2cc(F)ccc21 [Example 4, 10-fluoro-7-methyl-5-[1-(methylsulfonyl)-1,2,3,6-tetrahydropyridin-4-yl]-6,7-dihydro-4H-3,4,7-triazadibenzo[cd,f]azulene]
16 | 62 nM | 730 nM | CS(=O)(=O)N1CC=C(c2[nH]c3nccc4c3c2CNc2ccc(F)cc2-4)CC1 [Example 5, 10-fluoro-5-[1-(methylsulfonyl)-1,2,3,6-tetrahydropyridin-4-yl]-6,7-dihydro-4H-3,4,7-triazadibenzo[cd,f]azulene]
17 | 340 nM | 2100 nM | CCCN1Cc2c(C3=CCN(S(C)(=O)=O)CC3)[nH]c3nccc(c23)-c2cc(F)ccc21 [Example 6, 10-fluoro-5-[1-(methylsulfonyl)-1,2,3,6-tetrahydropyridin-4-yl]-7-propyl-6,7-dihydro-4H-3,4,7-triazadibenzo[cd,f]azulene]
18 | 800 nM | 3300 nM | CS(=O)(=O)N1CC=C(c2[nH]c3nccc4c3c2CN(CC2CCOCC2)c2ccc(F)cc2-4)CC1 [Example 7, 10-fluoro-5-[1-(methylsulfonyl)-1,2,3,6-tetrahydropyridin-4-yl]-7-(tetrahydro-2H-pyran-4-ylmethyl)-6,7-dihydro-4H-3,4,7-triazadibenzo[cd,f]azulene]
19 | 1400 nM | – | CCC1c2c(C3=CCN(C(=O)OC(C)(C)C)CC3)[nH]c3nccc(c23)-c2cc(F)ccc2N1C (stereo not shown) [Example 8, tert-butyl 4-(6-ethyl-10-fluoro-7-methyl-6,7-dihydro-4H-3,4,7-triazadibenzo[cd,f]azulen-5-yl)-3,6-dihydropyridine-1(2H)-carboxylate]
20 | 120 nM | 32 nM | CCC1c2c(C3=CCN(S(C)(=O)=O)CC3)[nH]c3nccc(c23)-c2cc(F)ccc2N1C (stereo not shown) [Example 11, 6-ethyl-10-fluoro-7-methyl-5-[1-(methylsulfonyl)-1,2,3,6-tetrahydropyridin-4-yl]-6,7-dihydro-4H-3,4,7-triazadibenzo[cd,f]azulene]
21 | – | 93 nM | CNC(=O)N1CC=C(c2[nH]c3nccc4c3c2CN(C)c2ccc(F)cc2-4)CC1 [Example 13, 4-(10-fluoro-7-methyl-6,7-dihydro-4H-3,4,7-triazadibenzo[cd,f]azulen-5-yl)-N-methyl-3,6-dihydropyridine-1(2H)-carboxamide]
22 | 2800 nM | – | CN1Cc2c(C3CCN(CC(=O)OC(C)(C)C)CC3)[nH]c3nccc(c23)-c2cc(F)ccc21 [Example 22, tert-butyl[4-(10-fluoro-7-methyl-6,7-dihydro-4H-3,4,7-triazadibenzo[cd,f]azulen-5-yl)piperidin-1-yl]acetate]
23 | 150 nM | – | CN1Cc2c(C3CCN(CC(=O)O)CC3)[nH]c3nccc(c23)-c2cc(F)ccc21 [Example 23, [4-(10-fluoro-7-methyl-6,7-dihydro-4H-3,4,7-triazadibenzo[cd,f]azulen-5-yl)piperidin-1-yl]acetic acid]
24 | – | 130 nM | CN1Cc2c(C3=CCN(S(C)(=O)=O)CC3)[nH]c3ncc(F)c(c23)-c2cc(F)ccc21 [Example 68, 1,10-difluoro-7-methyl-5-[1-(methylsulfonyl)-1,2,3,6-tetrahydropyridin-4-yl]-6,7-dihydro-4H-3,4,7-triazadibenzo[cd,f]azulene]
25 | 240 nM | – | CN1Cc2c(C3=CCCN(CC(=O)O)C3)[nH]c3nccc(c23)-c2cc(F)ccc21 [Example 112, [5-(10-fluoro-7-methyl-6,7-dihydro-4H-3,4,7-triazadibenzo[cd,f]azulen-5-yl)-3,6-dihydropyridin-1(2H)-yl]acetic acid]
26 | 58 nM | – | COC(=O)C[C@H]1CC[C@H](N2CC=C(c3[nH]c4nccc5c4c3CN(C)c3cc(F)c(F)cc3-5)CC2)CC1 [Example 133, methyl{trans-4-[4-(9,10-difluoro-7-methyl-6,7-dihydro-4H-3,4,7-triazadibenzo[cd,f]azulen-5-yl)-3,6-dihydropyridin-1(2H)-yl]cyclohexyl}acetate]
27 | 84 nM | – | CC(C(=O)O)=C1CCC(N2CC=C(c3[nH]c4nccc5c4c3CN(C)c3ccc(F)cc3-5)CC2)CC1 (stereo not shown) [Example 176, 2-{4-[4-(10-fluoro-7-methyl-6,7-dihydro-4H-3,4,7-triazadibenzo[cd,f]azulen-5-yl)-3,6-dihydropyridin-1(2H)-yl]cyclohexylidene}propanoic acid]
